The values below come from patent US20220226219A1, “ANTIMICROBIAL COMPOSITIONS” (Conopco, Inc., d/b/a UNILEVER, priority 2019, published 2022).

The test system of this assay is Gram negative fermenting bacteria; Enterobacter gergoviae and Klebsiella species. The experiment in a line: Liquid broth MIC assay of individual chemicals. The format is cell-based. The following applies: tryptic soy broth, 30° C., 24 hours, OD600, MIC = concentration at which <25% growth vs positive growth control.
Procedure: Liquid broth assays (MIC and checkerboard) were conducted to identify the minimum concentration(s) of individual and tertiary antimicrobial chemicals. A modified methodology to ISO 20776-1:2006 was utilized for the screening as follows. Stock solutions of antimicrobial chemicals and tryptic soy broth were inoculated with 1-5×10^6 microorganism mixture of Gram negative fermenting bacteria; Enterobacter gergoviae and Klebsiella species.
Samples were incubated at 30° C. for 24 hours, after which optical densities at OD600 nm were measured.
In turn, `CC(=O)OCc1ccccc1` [Benzyl Acetate] had an MIC of 2 wt %.
`CC(C)=CCCC(C)CCO` (stereo not shown) [Citroneol] returned an MIC of 2 wt %.
To `CCCC(=O)OCC` [Ethyl Butyrate] belongs 2 wt %; to `CC12CCC(CC1)C(C)(C)O2` [Eucalyptol], 2 wt %.
Molecule `C=CCc1ccc(O)c(OC)c1` [Eugenol] registered an MIC of 0.063 wt %.
As for `CCCCCCCC1CCC(=O)O1` (stereo not shown) [Gamma Undecalactone], the figure is 2 wt %; as for `CC(C)=CCC/C(C)=C/CO` [Geraniol Natural, Geraniol], 2 wt %; as for `CC(=O)OC/C=C(\C)CCC=C(C)C` [Geranyl Acetate], 2 wt %.
As for `CCCCCCOC(C)=O` [Hexyl acetate], the figure is 2 wt %; as for `C=C(C)[C@H]1CC=C(C)CC1` [Limonene], 2 wt %; as for `CC1CCC(C(C)C)C(O)C1` (stereo not shown) [Menthol], 2 wt %.
To `Cc1cc(CC(C)CC(C)(C)C)n(O)c(=O)c1.NCCO` (stereo not shown) [Octopirox, piroctone olamine, reference compound] belongs 0.063 wt %; to `OCCc1ccccc1` [Phenethyl Alcohol], 0.5 wt %; to `O=C([O-])c1ccccc1.[Na+]` [Sodium benzoate], 0.5 wt %.
Consider `CC1=CC[C@@H](C(C)(C)O)CC1` [Terponeol], for which the MIC turned out to be 0.125 wt %.
As for `C=C(CC(=O)O)C(=O)O` [ltaconic Acid], the MIC came out at 0.5 wt %.
